{
  "source": "patent US8598145B2",
  "about": "“Mitochondrially delivered anti-cancer compounds” (priority 2008, dated 2013)",
  "key": {"malignant cells": {"test_system": "malignant cells", "assay": "Apoptosis assays of FIG. 2 (Annexin V method)", "type": "cell-based", "experimental": "Jurkat (A, G), HCT-116 (B), MCF-7 (C), MDA-MB-453 (D), and Meso-2 cells (E) were exposed to MitoVES at concentrations 1-50 μM (A-F), or to VES4TPP or α-TOS at 50 μM (B). At the times shown, the cells were harvested and assessed for apoptosis. […] Apoptosis data shown are derived from three independent experiments and are presented as mean values±S.D., the micrographs are representative images of at least three independent experiments.\n(§1) Toxicity of α-TOS, VE11S (“VES”), MitoVE3S, MitoVE5S, MitoVE7S, MitoVE9S, MitoVE11S (“MitoVES”), MitoVE11AE (“MitoVEAE”), MitoVE11F (“MitoVEF”), MitoVE11M (“MitoVEM”), and VES4TPP towards cancer cells was assessed on the basis of IC50, as detailed in Turanek, J., et al. ((2008). Liposomal formulation of vitamin E analogs as an efficient and selective anti-cancer treatment. Clin. Cancer Res. (submitted)). […]"}, "EAhy926 cells": {"test_system": "EAhy926 cells", "assay": "Apoptosis in proliferating and arrested endothelial cells (FIG. 6)", "type": "cell-based, human", "conditions": "EAhy926 at ~50% or 100% confluency", "experimental": "Parental EAhy926 cells were seeded in 24-well plate so that they would acquire after an overnight recuperation ˜50% or 100% confluency, while their ρ^0 counterparts were seeded at 50% confluency. The proliferating and confluent cells were then exposed to MitoVES at concentrations and for times shown, and assessed for apoptosis level by the Annexin V-binding method (A) and for ROS accumulation using the fluorescent probe DHE (B).\nas §1"}, "[1]": {"test_system": "Ras-transformed B9 cells with a defective Complex II", "assay": "Apoptosis in Ras-transformed B1 and B9 cells (FIG. 4C)", "type": "cell-based, Chinese hamster", "experimental": "4C—After 24 h of treatment with Complex II targeting drugs TTFA or MitoVES, Ras transformed B1 and B9 cells were assessed for apoptosis using the Annexin V binding method.\nThe following cell lines used in this study were obtained from ATCC, unless specified otherwise: Human T lymphoma cells Jurkat, human mesothelioma cells Meso-I, MM-BI, Ist-Mes, Ist-Mes-2 (Pass, H. I. et al. Characteristics of nine newly derived mesothelioma cell lines. Ann. Thorac. Surg. 59, 835-844 (1995)), human breast cancer cells MCF-7 (erbB2-low) and MDA-MB-453 (erbB2-high), human colorectal cells HCT-116, human hepatocarcinoma cells Huh-7, mouse mesothelioma cells AE17 (Jackaman, C. et al. IL-2 intratumoral immunotherapy enhances CD8+ T cells that mediate destruction of tumor cells and tumor-associated vasculature: a novel mechanism for IL-2. J. Immunol. 171, […] (2003), human non-malignant mesothelial cells Met-5A, […] (Claycomb, W. C. et al. HL-1 cells: a cardiac muscle cell line that contracts and retains phenotypic characteristics of the adult cardiomyocyte. Proc. Natl. Acad. Sci. USA 95, 2979-2984 […]) and H9c2, and the human endothelial-like cells EAhy926 (Edgell, C. J., McDonald, C. C. & Graham, J. B. Permanent cell line expressing human factor VIII-related antigen established by hybridization. Proc. Natl. Acad. Sci. USA 80, 3734-3737 (1983)). Jurkat cells were grown in the RPMI medium while DMEM was used for other malignant cell lines and for Met-5A cells, supplemented with 10% FCS and antibiotics. HL-1 cells, maintained in fibronectin/gelatine-coated dishes, were grown in the Claycomb medium supplemented with noradrenalin (Claycomb, W. C. et al. HL-1 cells: a cardiac muscle cell line that contracts and retains phenotypic characteristics of the adult cardiomyocyte. Proc. Natl. Acad. Sci. USA 95, 2979-2984 […]), EAhy926 cells were grown in complete DMEM supplemented with HAT (Edgell, C. J., McDonald, C. C. & Graham, J. B. Permanent cell line expressing human factor VIII-related antigen established by hybridization. Proc. Natl. Acad. Sci. USA 80, 3734-3737 (1983)). Cells deficient in mtDNA (ρ^0 phenotype) were prepared as detailed in Weber, T. et al., (Mitochondria play a central role in apoptosis induced by α-tocopheryl succinate, an agent with anticancer activity. Comparison with receptor-mediated pro-apoptotic signaling. Biochemistry 42, 4277-4291 (2003)). Acquisition of the ρ^0 phenotype was confirmed by lack of expression by the cells of the mtDNA-encoded cytochrome c oxidase subunit II (COXII not shown). […]"}, "breast carcinomas": {"test_system": "breast carcinomas", "assay": "Spontaneous ductal breast carcinomas in transgenic mice (FIG. 9)", "type": "in vivo, FVB/N c-neu mice", "experimental": "The transgenic FVB/N c-neu female mice with spontaneous small breast carcinomas were treated with MitoVES at 3 μmol per mouse per dose and the tumour volume was assessed by repeated ultrasound imaging, monitoring tumour growth over several weeks.\nFor this purpose, the transgenic FVB/N c-neu mice that form spontaneous ductal breast carcinomas due to high level of expression of the oncogene, HER2 were used as a cancer model."}},
  "data": [
    {"smiles": "Cc1c(C)c2c(c(C)c1OC(=O)CCC(=O)[O-])CCC(C)(CCCCCCCCCCC[P+](c1ccccc1)(c1ccccc1)c1ccccc1)O2", "note": "(centres unmarked) [MitoVE11S]", "values": [
      {"measurement": "apoptosis in malignant versus normal equivalent cell types", "setting": "malignant cells; FIG. 2, exception dividing endothelial cells", "result": "causes apoptosis selectively in malignant cells"},
      {"measurement": "fold more apoptogenic / more active than α-TOS in cancer cells", "setting": "malignant cells; relative to α-TOS", "result": "up to 50 fold"},
      {"measurement": "apoptosis in proliferating versus arrested endothelial cells", "setting": "EAhy926 cells", "result": "causes apoptosis in proliferating but not arrested endothelial cells"},
      {"measurement": "sensitivity to apoptosis of Ras-transformed B9 cells compared to Ras-transformed B1 cells", "setting": "[1]; 24 h treatment, Annexin V binding", "result": "much less sensitive"},
      {"measurement": "sensitivity after reconstitution of Complex II function (human SDHC) in Ras-transformed B9 cells", "setting": "[1]; B9 cells transfected to express human SDHC", "result": "restored the sensitivity"},
      {"measurement": "progression of breast cancer tumours", "setting": "breast carcinomas; 3 μmol per mouse per dose, tumour volume by ultrasound imaging", "result": "completely blocked progression"},
      {"measurement": "toxicity in treated animals", "setting": "breast carcinomas; FVB/N c-neu mice", "result": "no obvious sign of toxicity"},
      {"measurement": "fold lower concentrations than needed for corresponding activity of α-TOS", "setting": "breast carcinomas; relative to α-TOS", "result": "~10", "unit": "fold"}
    ]}
  ]
}
